Literature values as cited in patent US20110177038A1, “Inhibition of Tumor Growth via Peroxiredoxin 3” (THE JOHNS HOPKINS UNIVERSITY, priority 2002, published 2011).

System: MCF7/ADR cells
Details: free radical scavenger

SMILES: CC(=O)C(=O)[O-].[Na+] [sodium pyruvate]
- Inhibition of apoptosis after glucose withdrawal: sufficient to inhibit apoptosis
